Experimental data as given in PMC6287539 (International Journal for Parasitology: Drugs and Drug …, 2018).

What was measured:
[1] = biological target: T1, Hco-ACC-2 (homomeric channel) (Haemonchus contortus, UniProt A0A219KWM7); assay: two-electrode voltage clamp in Xenopus oocytes, dose-response; format: cell-based
T1 sequence (A0A219KWM7 18-443): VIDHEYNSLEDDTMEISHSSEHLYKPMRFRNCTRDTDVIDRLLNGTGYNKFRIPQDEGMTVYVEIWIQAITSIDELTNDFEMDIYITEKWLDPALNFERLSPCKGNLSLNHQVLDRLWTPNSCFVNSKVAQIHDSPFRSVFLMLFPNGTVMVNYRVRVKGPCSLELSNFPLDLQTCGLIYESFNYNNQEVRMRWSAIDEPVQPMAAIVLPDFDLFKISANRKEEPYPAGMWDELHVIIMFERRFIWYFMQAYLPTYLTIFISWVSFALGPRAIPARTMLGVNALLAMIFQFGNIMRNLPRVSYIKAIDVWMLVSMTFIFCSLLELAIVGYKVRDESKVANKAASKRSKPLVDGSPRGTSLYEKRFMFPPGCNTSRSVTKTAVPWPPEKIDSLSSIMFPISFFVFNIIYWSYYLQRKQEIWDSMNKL

[2] = biological target: T2, Hco-ACC-1 (in the Hco-ACC-1/2 heteromeric channel) (Haemonchus contortus, UniProt A0A219KVV5+A0A219KWM7); assay: as above; format: cell-based
T2 sequence (A0A219KVV5 23-459): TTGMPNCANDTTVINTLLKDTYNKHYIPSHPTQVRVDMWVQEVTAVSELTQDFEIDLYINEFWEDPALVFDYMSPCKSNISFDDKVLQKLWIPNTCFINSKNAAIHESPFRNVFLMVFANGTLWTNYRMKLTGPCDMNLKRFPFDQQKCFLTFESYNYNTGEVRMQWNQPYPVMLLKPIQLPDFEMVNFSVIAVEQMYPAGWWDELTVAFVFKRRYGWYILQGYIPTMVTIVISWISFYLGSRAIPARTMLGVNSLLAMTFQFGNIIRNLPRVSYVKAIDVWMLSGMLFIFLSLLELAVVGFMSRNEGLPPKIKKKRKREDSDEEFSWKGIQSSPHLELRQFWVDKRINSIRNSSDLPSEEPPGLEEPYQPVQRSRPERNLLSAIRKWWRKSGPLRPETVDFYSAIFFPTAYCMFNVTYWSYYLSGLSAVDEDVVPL
T2 sequence (A0A219KWM7 18-443): T1 sequence (A0A219KWM7 18-443)

EC50 [1]: 46 ± 2 µM
EC50 [2]: 32.5 ± 3 µM
SMILES: C[N+](C)(C)CCOC(N)=O [carbachol]
